Test results reported in patent US7034048B2, “Gastrin and cholecystokinin receptor ligands (III)” (James Black Foundation Limited, priority 2000, dated 2006).

Target: T1, gastrin (CCK2) receptors (Rattus norvegicus, UniProt P30553)
T1 construct: The stomach was excised and flushed with ca. 1 ml of unbuffered physiological saline solution; from tissue; host or cells: isolated, lumen-perfused stomach of immature rats (33-50 g, ca. 21 days old)
T1 sequence (P30553 1-452): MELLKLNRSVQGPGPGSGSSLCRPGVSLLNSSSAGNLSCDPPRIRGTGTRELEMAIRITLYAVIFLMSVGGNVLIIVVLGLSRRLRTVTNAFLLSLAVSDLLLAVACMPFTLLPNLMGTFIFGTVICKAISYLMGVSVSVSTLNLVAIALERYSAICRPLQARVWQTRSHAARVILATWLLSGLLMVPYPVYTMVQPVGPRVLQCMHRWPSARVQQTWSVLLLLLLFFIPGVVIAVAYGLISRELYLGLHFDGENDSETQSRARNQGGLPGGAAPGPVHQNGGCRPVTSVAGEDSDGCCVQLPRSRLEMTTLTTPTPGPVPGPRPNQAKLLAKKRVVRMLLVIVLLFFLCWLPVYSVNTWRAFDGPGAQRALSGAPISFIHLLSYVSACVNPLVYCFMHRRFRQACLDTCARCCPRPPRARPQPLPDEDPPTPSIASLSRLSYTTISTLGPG
Test: immature rat stomach assay, gastrin (CCK2) antagonist activity against pentagastrin-stimulated acid secretion
Conditions: isolated immature rat stomach, 60 min incubation, then cumulative pentagastrin dose-response curves, read-out: Rat Stomach pKB (converted)
Experimental: The compounds of the examples were tested for gastrin (CCK2) antagonist activity in an immature rat stomach assay. The procedure was as follows: The oesophagus of immature rats (33–50 g, ca. 21 days old) was ligated at the level of the cardiac sphincter and the duodenal sphincter was cannulated. The stomach was excised and flushed with ca. 1 ml of unbuffered physiological saline solution. The fundus was punctured and cannulated. A further 4–5 ml of unbuffered solution was flushed through the stomach to ensure the preparation was not leaking. The stomach was lowered into a jacketed organ bath containing 40 ml of buffered solution containing 3×10^−8 M 5-methylfurmethide, maintained at 37° and gassed vigorously with 95% O2/5% CO2. The stomach was continuously perfused at a rate of 1 ml min^−1 with unbuffered solution gassed with 100% O2 with the perfusate passing over an internally referenced pH-electrode fixed 12 cm above the stomach. After 120 min of stabilisation the drugs were added directly to the serosal solution in the organ bath and after a further 60 min cumulative pentagastrin dose-response curves were started. Changes in acid secretion were monitored and the curves analysed according to Black et al., Br. J. Pharmacol. 1985, 86, 581.

SMILES	Kb [nM]
O=C(O)c1ccc2[nH]c(-c3nc(C4CCCCC4)[nH]c3COC34CC5CC(CC(C5)C3)C4)nc2c1 [Example 3, 2-[5-(Adamantan-1-yloxymethyl)-2-cyclohexyl-1H-imidazole-4-yl]-1H-benzoimidazole-5-carboxylic acid]	3390
O=C(O)c1cccc2[nH]c(-c3nc(C4CCCCC4)[nH]c3COC34CC5CC(CC(C5)C3)C4)nc12 [Example 4, 2-[5-(Adamantan-1-yloxymethyl)-2-cyclohexyl-1H-imidazole-4-yl]-1H-benzoimidazole-4-carboxylic acid]	372
O=C(O)Cc1ccc2oc(-c3nc(C4CCCCC4)[nH]c3COC34CC5CC(CC(C5)C3)C4)nc2c1 [Example 5, {2-[5-(Adamantan-1-yloxymethyl)-2-cyclohexyl-1H-imidazole-4-yl]-benzooxazol-5-yl}-acetic acid]	2040

Other lines, results leading:

Kb [nM]	SMILES
3310	O=C(O)c1ccc2oc(-c3nc(C4CCCCC4)[nH]c3COC34CC5CC(CC(C5)C3)C4)nc2c1 [Example 1, 2-[5-(Adamantan-1-yloxymethyl)-2-cyclohexyl-1H-imidazole-4-yl]-benzooxazole-5-carboxylic acid]
1620	O=C(O)c1ccc2nc(-c3nc(C4CCCCC4)[nH]c3COC34CC5CC(CC(C5)C3)C4)oc2c1 [Example 2, 2-[5-(Adamantan-1-yloxymethyl)-2-cyclohexyl-1H-imidazole-4-yl]-benzooxazole-6-carboxylic acid]
